Here are results for 5 molecules from ChEMBL document CHEMBL1130596, “A high affinity, mu-opioid receptor-selective enkephalin analogue lacking an N-terminal tyrosine” (Bioorg Med Chem Lett, 1998).

The target of experiment [1] is Opioid receptors; mu/kappa/delta (Homo sapiens, UniProt P41145+P41143+P35372). Description: Agonistic activity tested in vitro in guinea pig ileum opioid. Format: functional, tissue-based, Cavia porcellus. The conditions noted are these: target entry is the homologue from another species.
The target of experiment [2] is Mu-type opioid receptor (Cavia porcellus, UniProt P97266). Description: Binding affinity against mu opioid receptor.
Chain of Mu-type opioid receptor (P97266 whole entry): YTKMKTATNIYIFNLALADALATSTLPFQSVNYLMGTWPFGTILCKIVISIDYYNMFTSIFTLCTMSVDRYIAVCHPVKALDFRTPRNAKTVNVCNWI
The nature of experiment [3]: Binding affinity against Opioid receptor delta 1.

pKi: −log10 of the molar value. Starred links: 1 amine or outer side, 2 acyl side, 3 side chain; linkers in the order of their positions; H or OH if unused. Positions of bridges follow the written chain, without caps; N, C: chain ends. Non-standard residues stand in square brackets, D forms with d. Residues, ends and D or L forms follow the SMILES beside them. dPen = CC(C)(S)[C@@H](N)C(=O)O; Pen = CC(C)(S)[C@H](N)C(=O)O; CH2CH2 = C(C[*:2])[*:1]

As usually defined, the IC50 is the concentration that gives 50% inhibition. A higher IC50 goes with weaker potency in that assay. As a reminder, the pKi is −log10 of the Ki, conventionally taken in molar units. Take `CC1(C)SCCSC[C@@H](NC(=O)[C@@H](N)Cc2ccccc2)C(=O)N[C@@H](Cc2ccccc2)C(=O)N[C@H]1C(N)=O`: the IC50 in experiment [1] is 9.1 nM. Further, in experiment [2], the pKi was 8.87.
As for `CC1(C)SSC[C@H](NC(=O)[C@@H](N)Cc2ccc(O)cc2)C(=O)N[C@@H](Cc2ccccc2)C(=O)N[C@@H]1C(=O)O` (H-YCF[Pen]-OH; disulfide 2-4), the pKi in experiment [3] was 9.13.
In experiment [2], `C[C@@H](NC(=O)[C@@H](N)Cc1ccc(O)cc1)C(=O)NCC(=O)N(C)[C@@H](Cc1ccccc1)C(=O)NCCO` [DAMGO] gave a negative logarithm of the Ki (pKi) of 9.00.
As for `CC1(C)SSC[C@@H](NC(=O)[C@@H](N)Cc2ccccc2)C(=O)N[C@@H](Cc2ccccc2)C(=O)N[C@H]1C(=O)O`, the pKi in experiment [2] is 6.21.
In experiment [2], `CC1(C)SCCSC[C@@H](NC(=O)[C@@H](N)Cc2ccc(O)cc2)C(=O)N[C@@H](Cc2ccccc2)C(=O)N[C@H]1C(N)=O` (H-Y[dC]F[dPen]-NH2; linker 2-4 via CH2CH2) showed a pKi of 9.54.
